PubChem BioAssay (NCI)
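In this assay, cells in 96-well plates receive the compound at five concentrations for 48 hours. Endpoints are linearly interpolated between the surrounding concentrations. Definition used: TGI = concentration required for complete inhibition of growth.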

Legend:
Assay in all cases: NCI-60 cell line screen, 48 h
[1] = system: OVCAR-8 ovarian
[2] = system: HOP-62 NSCLC
[3] = system: SF-295 CNS
[4] = system: ACHN renal
[5] = system: RXF 393 renal
[6] = system: SNB-19 CNS
[7] = system: 786-0 renal
[8] = system: HCT-15 colon
[9] = system: SNB-75 CNS
[10] = system: UACC-257 melanoma
[11] = system: BT-549 breast
[12] = system: HCT-116 colon
[13] = system: SK-OV-3 ovarian
[14] = system: IGROV1 ovarian
[15] = system: TK-10 renal
[16] = system: SK-MEL-2 melanoma
[17] = system: CAKI-1 renal
[18] = system: HL-60(TB) leukemia
[19] = system: EKVX NSCLC
[20] = system: NCI/ADR-RES ovarian
[21] = system: HCC-2998 colon
[22] = system: SN12C renal
[23] = system: NCI-H23 lung
[24] = system: RPMI-8226 leukemia
[25] = system: NCI-H226 lung
[26] = system: MDA-N
[27] = system: NCI-H460 lung
[28] = system: K-562 leukemia
[29] = system: A549 NSCLC
[30] = system: MALME-3M melanoma
[31] = system: NCI-H522 lung
[32] = system: MOLT-4 leukemia
[33] = system: SK-MEL-5 melanoma
[34] = system: M14 melanoma
[35] = system: COLO 205 colon
[36] = system: HOP-92 NSCLC
[37] = system: OVCAR-5 ovarian
[38] = system: KM12 colon
[39] = system: HT29 colon
[40] = system: OVCAR-4 ovarian
[41] = system: SF-268 CNS
[42] = system: SR leukemia
[43] = system: MCF7 breast
[44] = system: U251 CNS
[45] = system: SW-620 colon
[46] = system: SF-539 CNS
[47] = system: UACC-62 melanoma
[48] = system: SK-MEL-28 melanoma
[49] = system: OVCAR-3 ovarian
[50] = system: DU-145 prostate
[51] = system: PC-3 prostate
[52] = system: CCRF-CEM leukemia
[53] = system: UO-31 renal
[54] = system: A498 renal
[55] = system: MDA-MB-231 breast
[56] = system: HS 578T breast
[57] = system: T-47D breast
[58] = system: LOX IMVI melanoma
[59] = system: MDA-MB-435

## N#C/C(=C\c1cc(F)cc(F)c1)c1ccccn1
[1]
  TGI: 45.4 µM
[2]
  TGI: > 10 µM
[3]
  TGI: 60.2 µM
[4]
  TGI: > 100 µM
[5]
  TGI: > 100 µM
[6]
  TGI: > 100 µM
[7]
  TGI: > 10 µM
[8]
  TGI: 34.2 µM
[9]
  TGI: > 100 µM
[10]
  TGI: > 100 µM
[11]
  TGI: 97.1 µM
[12]
  TGI: > 100 µM
[13]
  TGI: > 100 µM
[14]
  TGI: > 100 µM
[15]
  TGI: > 100 µM
[16]
  TGI: > 100 µM
[17]
  TGI: > 100 µM
[18]
  TGI: > 10 µM
[19]
  TGI: 44.3 µM
[20]
  TGI: 66.9 µM
[21]
  TGI: 60 µM
[22]
  TGI: 62.9 µM
[23]
  TGI: 72.8 µM
[24]
  TGI: > 100 µM
[25]
  TGI: 56.9 µM
[26]
  TGI: > 100 µM
[27]
  TGI: 74 µM
[28]
  TGI: > 100 µM
[29]
  TGI: > 100 µM
[30]
  TGI: 73.9 µM
[31]
  TGI: 74.8 µM
[32]
  TGI: 45.8 µM
[33]
  TGI: > 100 µM
[34]
  TGI: 88.6 µM
[35]
  TGI: > 10 µM
[36]
  TGI: 48.1 µM
[37]
  TGI: > 100 µM
[38]
  TGI: 68 µM
[39]
  TGI: > 100 µM
[40]
  TGI: > 100 µM
[41]
  TGI: 52.8 µM
[42]
  TGI: 88.6 µM
[43]
  TGI: > 100 µM
[44]
  TGI: 40 µM
[45]
  TGI: > 10 µM
[46]
  TGI: 43.5 µM
[47]
  TGI: > 100 µM
[48]
  TGI: > 100 µM
[49]
  TGI: > 100 µM
[50]
  TGI: > 100 µM
[51]
  TGI: > 100 µM
[52]
  TGI: > 100 µM
[53]
  TGI: > 100 µM

## CCCC[C@@H](C)/C=C1\CN2CCC[C@H]2[C@@](C)(O)[C@@H]1O
[1]
  TGI: > 100 µM
[54]
  TGI: > 100 µM
[2]
  TGI: > 100 µM
[3]
  TGI: > 100 µM
[4]
  TGI: > 100 µM
[5]
  TGI: 38.1 µM
[6]
  TGI: > 100 µM
[55]
  TGI: > 100 µM
[7]
  TGI: > 100 µM
[8]
  TGI: > 100 µM
[9]
  TGI: 85.1 µM
[10]
  TGI: > 100 µM
[13]
  TGI: > 100 µM
[14]
  TGI: > 100 µM
[15]
  TGI: > 100 µM
[16]
  TGI: > 100 µM
[17]
  TGI: 71.2 µM
[18]
  TGI: 11 µM
[19]
  TGI: > 100 µM
[20]
  TGI: > 100 µM
[21]
  TGI: > 100 µM
[23]
  TGI: > 100 µM
[24]
  TGI: > 100 µM
[25]
  TGI: > 100 µM
[56]
  TGI: > 100 µM
[57]
  TGI: > 100 µM
[26]
  TGI: > 100 µM
[27]
  TGI: > 100 µM
[28]
  TGI: > 100 µM
[29]
  TGI: > 100 µM
[30]
  TGI: > 100 µM
[31]
  TGI: > 100 µM
[32]
  TGI: > 100 µM
[33]
  TGI: > 100 µM
[34]
  TGI: > 100 µM
[35]
  TGI: > 100 µM
[58]
  TGI: > 100 µM
[36]
  TGI: 73.6 µM
[37]
  TGI: > 100 µM
[38]
  TGI: > 100 µM
[39]
  TGI: > 100 µM
[40]
  TGI: > 100 µM
[41]
  TGI: > 100 µM
[42]
  TGI: > 100 µM
[43]
  TGI: > 100 µM
[44]
  TGI: > 100 µM
[45]
  TGI: > 100 µM
[46]
  TGI: > 100 µM
[47]
  TGI: > 100 µM
[48]
  TGI: > 100 µM
[49]
  TGI: > 100 µM
[50]
  TGI: 60.4 µM
[51]
  TGI: > 100 µM
[52]
  TGI: > 100 µM
[59]
  TGI: > 100 µM
[53]
  TGI: > 100 µM

## O=C(N=Nc1c(O)[nH]c2c(Cl)cc(Cl)cc12)c1ccccc1O
[1]
  TGI: 25.2 µM
[54]
  TGI: 30.8 µM
[2]
  TGI: 29.2 µM
[3]
  TGI: 28.4 µM
[4]
  TGI: 25.8 µM
[5]
  TGI: 25.3 µM
[6]
  TGI: 27.8 µM
[55]
  TGI: 30.1 µM
[7]
  TGI: 26.3 µM
[8]
  TGI: 29.2 µM
[9]
  TGI: 22.8 µM
[10]
  TGI: 33.2 µM
[11]
  TGI: 27.7 µM
[12]
  TGI: 27.3 µM
[13]
  TGI: 30.6 µM
[14]
  TGI: 26.9 µM
[15]
  TGI: 29.3 µM
[16]
  TGI: 26.1 µM
[17]
  TGI: 31.1 µM
[18]
  TGI: 43.4 µM
[19]
  TGI: 26.3 µM
[20]
  TGI: 26.3 µM
[21]
  TGI: 31.1 µM
[22]
  TGI: 30.5 µM
[23]
  TGI: 33.1 µM
[25]
  TGI: 29.4 µM
[56]
  TGI: 29 µM
[26]
  TGI: 28.1 µM
[27]
  TGI: 27.6 µM
[29]
  TGI: 27.4 µM
[30]
  TGI: 27.1 µM
[32]
  TGI: 31 µM
[33]
  TGI: 28.7 µM
[34]
  TGI: 30.3 µM
[35]
  TGI: 38.5 µM
[58]
  TGI: 28 µM
[36]
  TGI: 28.6 µM
[37]
  TGI: 32.4 µM
[38]
  TGI: 29.5 µM
[39]
  TGI: 34.8 µM
[40]
  TGI: 26.9 µM
[42]
  TGI: 23.7 µM
[43]
  TGI: 41 µM
[44]
  TGI: 21 µM
[45]
  TGI: 34.5 µM
[46]
  TGI: 29.6 µM
[47]
  TGI: 24.8 µM
[48]
  TGI: 30 µM
[49]
  TGI: 25.1 µM
[51]
  TGI: 29 µM
[52]
  TGI: 46.9 µM
[59]
  TGI: 26.9 µM
[53]
  TGI: 24.3 µM
